Experiment: GSH arylation rate constants (NMR; UV-vis for fast warheads)
Type: physicochemical
Design: key to rate constant (k) for the reaction with GSH / k: NR = no reaction
Details: for rate constant (k) for the reaction with GSH: by NMR, 5% DMSO-d6
Description: We employed nuclear magnetic resonance (NMR) and UV–vis to quantify the reactivity of our 2-SP derivatives and other representative electrophiles (Figure 2) against cysteine. NMR allowed straightforward determination of reaction rate constants through dual monitoring of the consumption of the warhead and formation of the product by integration of their respective NMR signals (Figures S1–S3). It simultaneously provided a direct readout on reaction specificity and hydrolytic stability of the warhead. All measurements were carried out in KPi buffer in the presence of 5% d^6-dmso, which is generally well-tolerated by a wide range of proteins in in vitro studies. N-acetylcysteine methylester (NACME) and L-glutathione (GSH) are useful model cysteine nucleophiles for in vitro studies of electrophilic agents.[32] Mixing reference electrophile 2-methylsulfonylpyrimidine (4q) with NACME or GSH in a 1:10 ratio (pseudo-first-order conditions) allowed extraction of accurate and reproducible second order rate constants (k).
Figure 3 In vitro determination of electrophilic reactivity of compounds. (A) NMR assay setup for warhead/GSH reaction rate constant determination and chemoselectivity monitoring, over a 6 h time scale. Purple bead = GSH. Hydrolytic stability was determined in the same way over 36 h. d^4-Trimethylsilylpropanoate (TMSP, blue box) was used as an internal standard for monitoring the warhead solubility. Second-order reaction rate constants (k) were obtained from their pseudo-first-order counterparts (k′), by time-dependent normalized integration of the disappearing warhead signals. […] (B) Experimental second-order rate constants (y axis, log10 scale) for the reaction of representative 2-SP derivatives (left, 11 out of ca. 40 examples) and previously reported heteroarylsulfones (right) with GSH in a KPi buffer, pH 7.0, 20 °C. All rate constants were calculated as an average of at least two independent measurements. Numerical values and standard deviations at both pH 7.0 and 6.5, along with a full list of 2-SPs and other electrophile types tested, are presented in Tables S2–S6 and Figure S4. The horizontal dashed line marks the reaction rate of 2-methylsulfonylpyrimidine at pH 7.0, as a reference when comparing with other reagents (see main text).
To establish an accurate structure–reactivity profile of 2-SP reagents, we systematically determined their reaction rate constants for the arylation of GSH by NMR, at pH 7.0 and 6.5. This was a prerequisite to (i) quantify the influence of substitution on reaction rates; (ii) accurately assess the tunability and chemoselectivity of 2-SPs for cysteine arylation; (iii) determine the influence of pH on the reaction rates to further inform on the precise reaction mechanism; and (iv) benchmark the overall performance of 2-SPs with those of previously reported fast reacting heteroarylsulfones and other common cysteine reactive warheads (Figure 2C,D).

Compound | rate constant (k) for the reaction with GSH (pH 6.5, KPi buffer) | rate constant (k) for the reaction with GSH (pH 7.0, KPi buffer) | reactivity with GSH (in words) (KPi buffer, up to 6 h) | k (Table S8, rate constants obtained at pH = 7) | rate relative to 5-NO2-MSBT / nitro-MSBT (10) (in words) (in vitro)
Cc1cc(C)nc(Cl)n1 [1a] | NR | NR |  |  | 
COc1ccnc(Cl)n1 [1b] | NR | NR |  |  | 
Cc1ccnc(Cl)n1 [1c] | NR | NR |  |  | 
O=C(O)c1ccnc(Cl)n1 [1d] | NR | NR |  |  | 
Clc1nccc(-c2ccccc2)n1 [1e] | NR | NR |  |  | 
COc1cc(OC)nc(Cl)n1 [1f] | NR | NR |  |  | 
Nc1ccnc(Cl)n1 [1g] | NR | NR |  |  | 
O=C(O)c1nc(Cl)ncc1Cl [1h] | NR | NR |  |  | 
O=C(O)c1nc(Cl)ncc1Br [1i] | NR | NR |  |  | 
NC(=O)c1ccnc(Cl)n1 [1j] | NR | NR |  |  | 
COC(=O)c1ccnc(Cl)n1 [1k] | NR | NR |  |  | 
FC(F)(F)c1ccnc(Cl)n1 [1l] | 0.00045 M⁻¹ s⁻¹ | 0.001 ± 0.0005 M⁻¹ s⁻¹ |  |  | 
Nc1cnc(Cl)nc1 [1m] | NR | NR |  |  | 
COc1cnc(Cl)nc1 [1n] | NR | NR |  |  | 
Cc1cnc(Cl)nc1 [1o] | NR | NR |  |  | 
Clc1ncc(-c2ccccc2)cn1 [1p] | NR | NR |  |  | 

Compound | rate constant (k) for the reaction with GSH (pH 6.5, KPi buffer) | rate constant (k) for the reaction with GSH (pH 7.0, KPi buffer) | reactivity with GSH (in words) (KPi buffer, up to 6 h) | k (Table S8, rate constants obtained at pH = 7) | rate relative to 5-NO2-MSBT / nitro-MSBT (10) (in words) (in vitro)
Clc1ncccn1 [1q] | NR | NR | failed to induce observable arylation of GSH | NR | 
Fc1cnc(Cl)nc1 [1r] | NR | NR |  |  | 
Clc1cnc(Cl)nc1 [1s] | Ca. 0.07 mM-1.s-1 | Ca. 0.26 mM-1.s-1 |  |  | 
Clc1ncc(Br)cn1 [1t] | Ca. 0.025 mM-1.s-1 | Ca. 0.15 mM-1.s-1 |  |  | 
O=C(O)c1cnc(Cl)nc1 [1v] | Ca. 0.14 mM-1.s-1 | Ca. 0.65 mM-1.s-1 |  |  | 
O=[N+]([O-])c1cnc(Cl)nc1 [1w] | NR | NR |  |  | 
COC(=O)c1cnc(Cl)nc1 [1y] | Ca. 11 mM-1.s-1 | Ca. 55 mM-1.s-1 |  |  | an order of magnitude
CSc1nc(C)cc(C)n1 [2a] | NR | NR |  |  | 
COc1ccnc(SC)n1 [2b] | NR | NR |  |  | 
CSc1nccc(C)n1 [2c] | NR | NR |  |  | 
CSc1nccc(C(=O)O)n1 [2d] | NR | NR |  |  | 
CSc1nccc(-c2ccccc2)n1 [2e] | NR | NR |  |  | 
COc1cc(OC)nc(SC)n1 [2f] | NR | NR |  |  | 
CSc1nccc(N)n1 [2g] | NR | NR |  |  | 
CSc1ncc(Cl)c(C(=O)O)n1 [2h] | NR | NR |  |  | 

Reference: PMC10515483, “Structure–Reactivity Studies of 2-Sulfonylpyrimidines Allow Selective Protein Arylation” (Bioconjugate Chemistry, 2023)
